Inhibition data for 15 compounds are collected here from ChEMBL document CHEMBL1123813, “Chemistry and inhibitory activity of long chain fatty acid oxidation of emeriamine and its analogues” (J Med Chem, 1987).

Assay [1] is filed under the species Rattus norvegicus. Put plainly: Inhibition of carnitine-dependent oxidation of [1-14C]palmitate to 14CO2 in rat liver mitochondria was measured in vitro at 2*10e-2 mM concentration. In kind it is functional.
For assay [2], the species on record is Rattus norvegicus. The experiment in a line: Inhibition of carnitine-dependent oxidation of [1-14C]palmitate to 14CO2 in rat liver mitochondria was measured in vitro at 2*10e-3 mM concentration. In kind it is functional.
The species named for assay [3] is Rattus norvegicus. Put plainly: Inhibition of carnitine-dependent oxidation of [1-14C]palmitate to 14CO2 in rat liver mitochondria was measured in vitro at 2 mM concentration.
The species named for assay [4] is Rattus norvegicus. Put plainly: Inhibition of carnitine-dependent oxidation of [1-14C]palmitate to 14CO2 in rat liver mitochondria was measured in vitro at 2*10e-1 mM concentration. In kind it is functional.

Take `COC(=O)CC(N)C[N+](C)(C)C` (stereo not drawn): the inhibition (as a rule, the change of the read-out against control, counted positive when it falls) in the assay listed under Rattus norvegicus [1] came out at 73%; in the assay filed under Rattus norvegicus [2], 26%.
Regarding `C[N+](C)(C)CC(CC(=O)[O-])NC(N)=O` (stereo not drawn), the inhibition in the assay listed under Rattus norvegicus [3] came to 72%; in the assay filed under Rattus norvegicus [4], 84%.
Regarding `CCCCCCCCCCCCCC(=O)NC(CC(=O)[O-])C[N+](C)(C)C` (stereo not drawn), the inhibition in the assay listed under Rattus norvegicus [1] and in the assay filed under Rattus norvegicus [2] was 100% throughout.
As to `C[N+](C)(C)C[C@H](N)CC(=O)[O-]`, the inhibition was found to be 90% in the assay listed under Rattus norvegicus [1] and 59% in the assay listed under Rattus norvegicus [2].
`CCC(=O)NC(CC(=O)[O-])C[N+](C)(C)C` (stereo not drawn) showed an inhibition in the assay filed under Rattus norvegicus [3] of 44%.
On to `CCCCCCCCCCCCCCCC(=O)NC(CC(=O)[O-])C[N+](C)(C)C` (stereo not drawn), for which the inhibition in the assay filed under Rattus norvegicus [1] and in the assay listed under Rattus norvegicus [2] was 100% throughout.
In the case of `COC(=O)NC(CC(=O)[O-])C[N+](C)(C)C` (stereo not drawn), the inhibition in the assay listed under Rattus norvegicus [3] and in the assay listed under Rattus norvegicus [4] was 0% in each case.
Compound `CCCC(=O)NC(CC(=O)[O-])C[N+](C)(C)C` (stereo not drawn) came in with an inhibition in the assay filed under Rattus norvegicus [3] of 50%.
With `CCOC(=O)CC(N)C[N+](C)(C)C` (stereo not drawn), the inhibition in the assay listed under Rattus norvegicus [1] is 85%; in the assay filed under Rattus norvegicus [2], 37%.
Take `CNC(CC(=O)[O-])C[N+](C)(C)C` (stereo not drawn): the values for the inhibition in the assay filed under Rattus norvegicus [3] and in the assay filed under Rattus norvegicus [4] were 100% and 89%, respectively.
For `Cc1ccc(S(=O)(=O)NC(CC(=O)[O-])C[N+](C)(C)C)cc1` (stereo not drawn), in that order: 100% and 84%.
Turning to `C[N+](C)(C)C[C@@H](CC(=O)[O-])NC=O`, the inhibition in the assay listed under Rattus norvegicus [3] amounted to 84%; in the assay filed under Rattus norvegicus [4] it was 53%.
For `CC(=O)NC(CC(=O)[O-])C[N+](C)(C)C` (stereo not drawn), in that order: 38% and 6%.
For the compound `C[N+](C)(C)CC(N)CC(N)=O` (stereo not drawn), the values for the inhibition in the assay listed under Rattus norvegicus [1] and in the assay listed under Rattus norvegicus [2] were 27% and 10%, respectively.
As to `C[N+](C)(C)CC(CC(=O)[O-])NC(=O)OCc1ccccc1` (stereo not drawn), the inhibition was 98% in the assay listed under Rattus norvegicus [3] and 85% in the assay listed under Rattus norvegicus [4].
